From US20080227780A1, “SOLUBLE EPOXIDE HYDROLASE INHIBITORS” (Arete Therapeutics, Inc., priority 2007, published 2008)

tested on: soluble epoxide hydrolase (sEH); experiment: Fluorescent assay for soluble epoxide hydrolase (CMNPC substrate), percent inhibition at the recited concentration; assay type: biochemical; details: Inhibition Conc. 200 nM
Method in brief: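 Purified recombinant baculovirus-expressed sEH in 25 mM Bis/Tris HCl pH 7.0 with 0.1 mg/mL BSA; inhibitor serially diluted and preincubated with enzyme 5 min at 30 °C. Reaction started with 5 μM (final) substrate; fluorescence (ex 330/em 465 nm) read every 30 s for 10 min, and velocities give % inhibition.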

SMILES | % inh. [%]
CC(=O)N1CCC(NC(=O)N2CCC(NC(=O)NC34CC5CC(CC(C5)C3)C4)CC2)CC1 [Compound 7-57, N-(1-acetylpiperidin-4-yl)-4-(3-adamantylureido)piperidine-1-carboxamide] | 90
CC(=O)N1CCC(NC(=O)NC23CCC(C)(CC2)CC3)CC1 [Compound 7-58, 1-(1-acetylpiperidin-4-yl)-3-(4-methylbicyclo[2.2.2]octan-1-yl)urea] | 84
O=C(NC1CCN(C(=O)CCO)CC1)NC12CC3CC(CC(C3)C1)C2 [Compound 7-59, 1-adamantyl-3-(1-(3-hydroxypropanoyl)piperidin-4-yl)urea] | 86
CC(C)(C)OC(=O)N1CCC(NC(=O)NC2CCCCCCC2)CC1 [Compound 7-64, tert-butyl 4-(3-cyclooctylureido)piperidine-1-carboxylate] | 97
O=C(Nc1ccc(OC(F)(F)F)cc1)NC1CCN(C(=O)CCCO)CC1 [Compound 7-71, 1-(1-(4-hydroxybutanoyl)piperidin-4-yl)-3-(4-(trifluoromethoxy)phenyl)urea] | 84
CC(C)(C)CC(=O)N1CCC(NC(=O)NC23CC4CC(CC(C4)C2)C3)CC1 [Compound 7-72, 1-adamantyl-3-(1-(3,3-dimethylbutanoyl)piperidin-4-yl)urea] | 96
O=C(NC1CCN(C(=O)CCCO)CC1)NC12CC3CC(CC(C3)C1)C2 [Compound 7-73, 1-adamantyl-3-(1-(4-hydroxybutanoyl)piperidin-4-yl)urea] | 94
O=C(NC1CCN(S(=O)(=O)CCCO)CC1)NC12CC3CC(CC(C3)C1)C2 [Compound 7-74, 1-adamantyl-3-(1-(3-hydroxypropylsulfonyl)piperidin-4-yl)urea] | 99
O=C(Nc1ccc(OC(F)(F)F)cc1)NC1CCN(S(=O)(=O)CCCO)CC1 [Compound 7-75, 1-(1-(3-hydroxypropylsulfonyl)piperidin-4-yl)-3-(4-(trifluoromethoxy)phenyl)urea] | 100
COCC(=O)N1CCC(NC(=O)NC23CC4CC(CC(C4)C2)C3)CC1 [Compound 7-76, 1-adamantyl-3-(1-(2-methoxyacetyl)piperidin-4-yl)urea] | 94
CC(C)(C)S(=O)(=O)N1CCC(NC(=O)Nc2ccc(OC(F)(F)F)cc2)CC1 [Compound 7-77, 1-(1-(tert-butylsulfonyl)piperidin-4-yl)-3-(4-(trifluoromethoxy)phenyl)urea] | 99
CC(C)(C)S(=O)(=O)N1CCC(NC(=O)NC23CC4CC(CC(C4)C2)C3)CC1 [Compound 7-78, 1-(1-(tert-butylsulfonyl)piperidin-4-yl)-3-adamantylurea] | 95
O=C(Nc1ccc(OC(F)(F)F)cc1)NC1CCN(C(=O)N2CCOCC2)CC1 [Compound 7-79, 1-(1-(morpholine-4-carbonyl)piperidin-4-yl)-3-(4-(trifluoromethoxy)phenyl)urea] | 98
CC(C)(C)C(=O)N1CCC(NC(=O)Nc2ccc(C#N)cc2)CC1 [Compound 7-81, 1-(4-cyanophenyl)-3-(1-pivaloylpiperidin-4-yl)urea] | 91
O=C(NC1CCN(C(=O)N2CCOCC2)CC1)NC12CC3CC(CC(C3)C1)C2 [Compound 7-82, 1-adamantyl-3-(1-(morpholine-4-carbonyl)piperidin-4-yl)urea] | 95
CC(=O)N1CCC(NC(=O)NC2CCCCCCC2)CC1 [Compound 7-84, 1-(1-acetylpiperidin-4-yl)-3-cyclooctylurea] | 92

same assay, conditions: Inhibition Conc. 500 nM

SMILES | % inh. [%]
O=C(NC1CCCCC1)NC1CCN(C(=O)CCCN2CCOCC2)CC1 [Compound 7-61, 1-cyclohexyl-3-(1-(4-morpholinobutanoyl)piperidin-4-yl)urea] | 83
CNS(=O)(=O)c1cccc(C(=O)N2CCC(NC(=O)Cc3ccc(Cl)cc3)CC2)c1 [Compound 7-85, 2-(4-chlorophenyl)-N-(1-(3-(N-methyl-sulfamoyl)benzoyl)-piperidin-4-yl)acetamide] | 73

same assay, conditions: Inhibition Conc. 2000 nM

SMILES | % inh. [%]
CC(=O)N1CCC(NC(=O)Nc2ccc(S(C)(=O)=O)cc2)CC1 [Compound 7-60, 1-(1-acetylpiperidin-4-yl)-3-(4-(methylsulfonyl)phenyl)urea] | 33
CC(=O)N1CCC(NC(=O)NC2CCC(F)(F)CC2)CC1 [Compound 7-62, 1-(1-acetylpiperidin-4-yl)-3-(4,4-difluorocyclohexyl)urea] | 82
CC(=O)N1CCC(NC(=O)NC2CCC2)CC1 [Compound 7-63, 1-(1-acetylpiperidin-4-yl)-3-cyclobutylurea] | 76
CN(C)c1ccc(NC(=O)NC2CCN(C(=O)OC(C)(C)C)CC2)cc1 [Compound 7-65, tert-butyl 4-(3-(4-(dimethylamino)phenyl)ureido)piperidine-1-carboxylate] | 95
COC(=O)c1ccc(NC(=O)NC2CCN(C(=O)OC(C)(C)C)CC2)cc1 [Compound 7-67, tert-butyl 4-(3-(4-(methoxycarbonyl)phenyl)ureido)piperidine-1-carboxylate] | 96
CC(C)(C)OC(=O)N1CCC(NC(=O)Nc2ccc(CN3CCCC3)cc2)CC1 [Compound 7-68, tert-butyl 4-(3-(4-(pyrrolidin-1-ylmethyl)phenyl)ureido)piperidine-1-carboxylate] | 93
COC(=O)c1ccc(NC(=O)NC2CCN(C(C)=O)CC2)cc1 [Compound 7-69, methyl 4-(3-(1-acetylpiperidin-4-yl)ureido)benzoate] | 69
CC(C)(C)C(=O)N1CCC(NC(=O)Nc2ccc(S(C)(=O)=O)cc2)CC1 [Compound 7-70, 1-(4-(methylsulfonyl)phenyl)-3-(1-pivaloylpiperidin-4-yl)urea] | 90
CC(=O)N1CCC(NC(=O)Nc2ccc(C#N)cc2)CC1 [Compound 7-80, 1-(1-acetylpiperidin-4-yl)-3-(4-cyanophenyl)urea] | 80
CC(=O)N1CCC(NC(=O)NC2CCC3(CCCC3)CC2)CC1 [Compound 7-83, 1-(1-acetylpiperidin-4-yl)-3-(spiro[4.5]decan-8-yl)urea] | 100
CC(C)(C)OC(=O)N1CCC(NC(=O)Nc2ccc(N3CCOCC3)cc2)CC1 [Compound 7-86, tert-butyl 4-(3-(4-morpholinophenyl)ureido)piperidine-1-carboxylate] | 90
CC(=O)N1CCC(NC(=O)Nc2ccc(N3CCOCC3)cc2)CC1 [Compound 7-87, 1-(1-acetylpiperidin-4-yl)-3-(4-morpholinophenyl)urea] | 0
CC(=O)N1CCC(NC(=O)NC2CCN(C(=O)OC(C)(C)C)CC2)CC1 [Compound 8-2, tert-butyl 4-(3-(1-acetylpiperidin-4-yl)ureido)piperidine-1-carboxylate] | 86
CC(=O)N1CCC(NC(=O)NC2CCN(C)CC2)CC1 [Compound 8-3, 1-(1-acetylpiperidin-4-yl)-3-(1-methylpiperidin-4-yl)urea] | 0
CC(=O)N1CCC(NC(=O)NC2CCOCC2)CC1 [Compound 8-4, 1-(1-acetylpiperidin-4-yl)-3-(tetrahydro-2H-pyran-4-yl)urea] | 23
CC(=O)N1CCC(NC(=O)NC2CCS(=O)(=O)CC2)CC1 [Compound 8-5, 1-(1-acetylpiperidin-4-yl)-3-(1,1-dioxo-tetrahydro-2H-thiopyran-4-yl)urea] | 23
CC(=O)N1CCC(NC(=O)NC2CCN(C(=O)C(C)(C)C)CC2)CC1 [Compound 8-6, 1-(1-acetylpiperidin-4-yl)-3-(1-pivaloylpiperidin-4-yl)urea] | 69

same assay, conditions: Inhibition Conc. 5000 nM

SMILES | % inh. [%]
CS(=O)(=O)N1CCC(NC(=O)NC2CCN(S(C)(=O)=O)CC2)CC1 [Compound 8-1, 1,3-bis(1-(methylsulfonyl)piperidin-4-yl)urea] | 79
